Experimental data from patent publication US10189803B2, “Synthesis of therapeutic and diagnostic drugs centered on regioselective and stereoselective ring opening of aziridinium ions” (ILLINOIS INSTITUTE OF TECHNOLOGY, priority 2008, dated 2019).
Values joined by “and” are separate entries in the source; they are usually repeats but may differ in a detail not shown here. Equal entries are not always repeated. “Also recorded” adds a separate entry of the source. Blank lines part the entries; values can stand above or below the compound they belong to.

What was measured:
[1] = test system: Hela cells; assay: Antiproliferative activity, MTS assay, HeLa cells; assay type: cell-based, Human; conditions: for IC50: 72 h incubation, MTS; for cytotoxicity in HeLa cells over a series of concentrations (in words): FIG. 18
Protocol: (§1) Cell culture Human cervix HeLa cell line was obtained from ATCC (Rockville, Md.) and cultured in minimum essential medium (MEM) with L-glutamine (2 mM), Earle's BSS and sodium bicarbonate (1.5 g/L), supplemented with 10% fetal bovine serum (FBS), non-essential amino acids (0.1 mM), sodium pyruvate (1 mM) and antibiotic/antimycotic solution in a humidified atmosphere with 5% CO2 at 37° C. […] Lung fibroblast MRC-5 cell line was obtained from ATCC (Rockville, Md.) and cultured in ATCC formulated EMEM, supplemented with 10% fetal bovine serum (FBS) in a humidified atmosphere with 5% CO2 at 37° C.
(§2) Antiproliferative Activity. Cells were seeded onto 96-well plate at density of 2,000 cells for Hela cells or 5,000 cells for HT29 cells or 5,000 cells for MRC-5 per well in 0.1 mL complete medium and allowed to attach for 24 h. Varying concentrations of the test compounds in the final volume of 0.1 mL complete medium were then added in at least five series dilutions and incubated for 72 h. To measure cell proliferation, the Cell Titer 96 aqueous nonreactive cell proliferation assay (Promega Life Sciences, Madison, Wis.) was used according to the manufacturer's instructions. Briefly, MTS (2 mg/mL) and PMS (0.92 mg/ml) were mixed in a ratio of 20:1. An aliquot (20 μL) of the MTS/PMS mixture was added into each well, and the plate was incubated for 3 h at 37° C. Optical absorbance at 490 nm was then recorded with an enzyme-linked immunosorbent assay (ELISA) microtiter plate reader (Biotek). Each experiment was done at least in triplicate. Antiproliferative activity of the test compounds was expressed as the fraction of optical densities of treated the cells relative to the untreated solvent controls.^31 The data were plotted in GraphPad Prizm 3.0. Nonlinear regression analysis was used to determine IC50 values.
(§3) Cell culture. Human cervix HeLa cell line was obtained from ATCC (Rockville, Md.) and cultured in minimum essential medium (MEM) with L-glutamine (2 mM), Earle's BSS and sodium bicarbonate (1.5 g/L), supplemented with 10% fetal bovine serum (FBS), non-essential amino acids (0.1 mM), sodium pyruvate (1 mM) and antibiotic/antimycotic solution in a humidified atmosphere with 5% CO2 at 37° C.
as §2, with “activity.” for “Activity.”, “cells” for “cells or 5,000 cells for MRC-5”, “controls.” for “controls.^31”

[2] = test system: HT29 cells; assay: Antiproliferative activity, MTS assay, HT29 cells; assay type: cell-based, Human
Protocol: as §1, §2, §3
as §2, with “activity.” for “Activity.”, “cells” for “cells or 5,000 cells for MRC-5”, “controls.” for “controls.^31”

[3] = In vitro serum stability of 64Cu-labeled ligands in rat serum (radio-TLC); assay type: in vitro ADME; conditions: for Purity (serum stability, radio-TLC): 37° C., n=3; for 64Cu dissociated from the complex: in 24 hours; for stability in rat serum (in words): 48 hours
Protocol: The radiolabeling reactions of the ligands with ^64Cu were performed at elevated temperatures to ensure complete complex formation. At the no-carrier-added (NCA) level, all ligands were successfully labeled with ^64Cu in quantitative radiochemical yields (100%) as determined by radio-TLC. […] The ^64Cu-labeled complexes were freshly prepared for their serum stability evaluation, which was assessed by measuring the transfer of radionuclide from the complex to serum proteins over 24 hours or 48 hours.
In vitro serum stability: To 100 μL of rat serum, 10 μL of each ^64Cu-labeled complex was added (n=3 per complex). DOTA labeled with ^64Cu was used as a positive control. The resulting solutions were incubated at 37° C. in a water-bath. At 1 h, 4 h, 24 h and 48 h after the complex addition to rat serum, the solutions were sampled and analyzed by radio-TLC.

[4] = In vitro serum stability of 177Lu-labeled complexes (radio-TLC, HPLC); assay type: in vitro ADME, mouse; design: Radiolabled Complex, in vitro serum stability (Table 1): unit not given here; conditions: for Radiolabled Complex, in vitro serum stability (Table 1): 37° C.
Protocol: The new ligand DEPA was radiolabeled with ^177Lu and ^205/6Bi (a surrogate of ^212Bi and ^213Bi) and the corresponding radiolabeled complexes were evaluated for in vitro serum stability as described previously. For comparison, DOTA was also radiolabeled with ^177Lu. DEPA and DOTA (0.25 M NH4OAc buffer, pH 4.0) was radiolabeled with ^177Lu at 45° C. for 0.5 h to afford ^177Lu-DEPA (Rf=0.6) and ^177Lu-DOTA (Rf=0.4) in the respective radiochemical yield of 90% and 95% as determined by radio-TLC. DEPA (0.25 M NH4OAc buffer, pH 5.0) was successfully radiolabeled with ^205/6Bi at room temperature for 1 h to afford ^205/6Bi-DEPA in 96% yield (radio-TLC). ^177Lu-DOTA, 177Lu-DEPA, and ^205/6Bi-DEPA formed were purified from unbound ^205/6Bi by ion-exchange chromatography using a Chelex-100 column (1 mL volume bed, 100-200 mesh, Na^+ form, Bio-Rad, Richmond, Calif.) eluted with PBS (pH 7.4). In vitro serum stability of the purified radiolabeled complexes was performed to determine if DEPA or DOTA radiolabeled with ^177Lu or ^205/6Bi remained stable without loss of the radionuclide in human serum. This was assessed by measuring the transfer of radionuclide from the complex to serum proteins. […] However, ˜10% of the radioactivity was released from ^177Lu-DOTA over 4 days.
In vitro serum stability of the radiolabeled metal complexes. An aliquot of 3.7 MBq of the purified ^177Lu-labeled ligands was added to 0.5 mL of mouse serum (Sigma, St. Louis, Mo.) and 0.1% NaN3. The resulting mixture was incubated at 37° C. for 96 h. Aliquots of 2 μL of the resulting mixture were analyzed by radio-TLC and HPLC at different time points, 0, 0.25, 0.5, 1, 2, 4, 6, 24, 48, and 96 h of incubation. The stability of purified ^205/6Bi-DEPA was evaluated in human serum (Gemini Bioproducts, Woodland, Calif.) for 14 days by measuring the transfer of the radionuclide from the complex to serum proteins as monitored by SE-HPLC. Radiolabeled complexes were diluted to an appropriate volume that allowed for preparation of multiple samples containing 5-10 μCi and filter-sterilized using a Millex-GV 0.22 μm filter. 140 μL of this stock solution was then mixed with 1400 μL of sterile normal human serum or saline. Aliquots (200 μL) were drawn and separated into individual tubes for subsequent analysis using aseptic technique. The samples were incubated at 37° C., and at designated intervals, subjected to analysis by SE-HPLC. Samples were loaded onto the HPLC and eluted with PBS, pH 7.4 isocratically at 1 mL/min. […] Radioactivity associated with a transfer to serum proteins generally appeared between ˜4.5-8 min.

[5] = Homo sapiens, HT-29, 72 h incubation

Compound: O=C(O)CN1CCN(CCN(CC(=O)O)Cc2ccccc2)CCN(CC(=O)O)CC1 [Bn-NE3TA]
IC50 [1]: 4.4 ± 0.9 µM | cytotoxicity in HeLa cells over a series of concentrations (in words) [1]: highest activity against HeLa cells | IC50 ([2]; 72 h incubation): 2.6 ± 0.2 µM

Compound: O=C(O)CNC(Cc1ccc([N+](=O)[O-])cc1)CN1CCN(CC(=O)O)CCN(CC(=O)O)CC1 (centres unmarked) [C-NE3TA, {4-Carboxymethyl-7-[2-(carboxymethyl-amino)-3-(4-nitro-phenyl)-propyl]-[1,4,7]triazonan-1-yl}-acetic acid]
IC50 ([1]; Homo sapiens): 7.1 ± 0.1 µM | IC50 [2, 5]: 5 ± 0.7 µM

Compound: O=C(O)CN1CCN(CC(=O)O)CCN(CC(Cc2ccc([N+](=O)[O-])cc2)N(CC(=O)O)CC(=O)O)CC1 (centres unmarked) [C-NETA]
IC50 [1]: > 100 µM | cytotoxicity in HeLa cells over a series of concentrations (in words) [1]: virtually no inhibitory activity | IC50 ([2]; 72 h incubation): 45.7 ± 4 µM

Compound: CC(CCC(=O)Nc1ccc(CC(CN2CCN(CC(=O)O)CCN(CC(=O)O)CC2)NCC(=O)O)cc1)C1CCC2C3CCC4CC(O)CCC4(C)C3CC(O)C12C (centres unmarked) [DCA-NE3TA, [4-Carboxymethyl-7-(2-(carboxymethyl-amino)-3-{4-[4-(3,12-dihydroxy-10,13-dimethylhexadecahydro-cyclopenta[a]phenanthren-17-yl)-pentanoylamino]-phenyl}-propyl)-[1,4,7]triazonan-1-yl]-acetic acid]
sensitivity of HeLa cells relative to DTPA [1]: approximately 40 fold | IC50 ([1]; Homo sapiens): 6.3 ± 0.1 µM | IC50 [2, 5]: 7.5 ± 0.3 µM

IC50 ([1]; Homo sapiens): 8.4 ± 0.4 µM | IC50 [2, 5]: 6.8 ± 0.4 µM
Compound: O=C(O)CN1CCN(CCN(CC(=O)O)Cc2ccc([N+](=O)[O-])cc2)CCN(CC(=O)O)CC1 [N-NE3TA]

Compound: O=C(O)CNCCN1CCN(CC(=O)O)CCN(CC(=O)O)CC1 [NE3TA, (4-Carboxymethyl-7-[2-(carboxymethyl-amino)-ethyl]-[1,4,7]trizonan-1-yl)-acetic acid]
IC50 ([1]; Homo sapiens): 5.7 ± 0.3 µM | IC50 [2, 5]: 4.7 ± 0.3 µM

Compound: O=C(O)CN1CCN(CCO)CCN(CC(=O)O)CC1.[64Cu] [^64Cu-NBEA]
Purity (serum stability, radio-TLC) ([3]; incubation time 1 h): 100 ± 0.0 | Purity (serum stability, radio-TLC) ([3]; incubation time 4 h): 100 ± 0.0 | Purity (serum stability, radio-TLC) ([3]; incubation time 24 h): 45.3 ± 9.8 | 64Cu dissociated from the complex [3]: 54%

Compound: O=C(O)CN1CCN(CCCO)CCN(CC(=O)O)CC1.[64Cu] [^64Cu-NBPA]
Purity (serum stability, radio-TLC) ([3]; incubation time 1 h): 99.6 ± 0.7 | Purity (serum stability, radio-TLC) ([3]; incubation time 4 h): 97.5 ± 4.4 | Purity (serum stability, radio-TLC) ([3]; incubation time 24 h): 70.5 ± 6.5 | 64Cu dissociated from the complex [3]: 29%

Compound: O=C(O)CN1CCN(CCN(CC(=O)O)Cc2ccccc2)CCN(CC(=O)O)CC1.[64Cu] [^64Cu-NE3TA-Bn]
Purity (serum stability, radio-TLC) ([3]; incubation time 1 h): 100 ± 0.0 | Purity (serum stability, radio-TLC) ([3]; incubation time 4 h): 100 ± 0.0 | Purity (serum stability, radio-TLC) ([3]; incubation time 24 h): 100 ± 0.0 | Purity (serum stability, radio-TLC) ([3]; incubation time 48 h): 100 ± 0.0 | stability in rat serum (in words) [3]: no measurable loss of radioactivity

Compound: O=C(O)CNCCN1CCN(CC(=O)O)CCN(CC(=O)O)CC1.[64Cu] [^64Cu-NE3TA]
Purity (serum stability, radio-TLC) ([3]; incubation time 1 h): 100 ± 0.0 | Purity (serum stability, radio-TLC) ([3]; incubation time 4 h): 100 ± 0.0 | Purity (serum stability, radio-TLC) ([3]; incubation time 24 h): 100 ± 0.0 | Purity (serum stability, radio-TLC) ([3]; incubation time 48 h): 100 ± 0.0 | stability in rat serum (in words) [3]: no measurable loss of radioactivity

Compound: O=C(O)CN1CCN(CCN(CC(=O)O)CC(=O)O)CCN(CC(=O)O)CCN(CC(=O)O)CC1.[177Lu] [^177Lu-DEPA]
Radiolabled Complex, in vitro serum stability (Table 1) ([4]; serum, 0 h): 100 | Radiolabled Complex, in vitro serum stability (Table 1) ([4]; serum, 0.5 h): 100 | Radiolabled Complex, in vitro serum stability (Table 1) ([4]; serum, 1 h): 100 | Radiolabled Complex, in vitro serum stability (Table 1) ([4]; serum, 2 h): 100 | Radiolabled Complex, in vitro serum stability (Table 1) ([4]; serum, 4 h): 100 | Radiolabled Complex, in vitro serum stability (Table 1) ([4]; serum, 6 h): 100 | Radiolabled Complex, in vitro serum stability (Table 1) ([4]; serum, 24 h): 100 | Radiolabled Complex, in vitro serum stability (Table 1) ([4]; serum, 48 h): 100 | Radiolabled Complex, in vitro serum stability (Table 1) ([4]; serum, 96 h): 100 | serum stability of 177Lu complex (in words) ([4]; serum, up to 96 h): remained intact without being dissociated in serum; also recorded: stable in serum

Compound: O=C([O-])CN1CCN(CC(=O)[O-])CCN(CC(=O)[O-])CCN(CC(=O)[O-])CC1.[177Lu+3].[H+] [^177Lu-DOTA, reference compound]
radioactivity released from the complex in serum ([4]; over 4 days): ~10% and 11% | Radiolabled Complex, in vitro serum stability (Table 1) ([4]; serum, 0 h): 100 | Radiolabled Complex, in vitro serum stability (Table 1) ([4]; serum, 0.5 h): 99.0 | Radiolabled Complex, in vitro serum stability (Table 1) ([4]; serum, 1 h): 100.1 | Radiolabled Complex, in vitro serum stability (Table 1) ([4]; serum, 2 h): 99.3 | Radiolabled Complex, in vitro serum stability (Table 1) ([4]; serum, 4 h): 97.0 | Radiolabled Complex, in vitro serum stability (Table 1) ([4]; serum, 6 h): 97.5 | Radiolabled Complex, in vitro serum stability (Table 1) ([4]; serum, 24 h): 98.2 | Radiolabled Complex, in vitro serum stability (Table 1) ([4]; serum, 48 h): 91.2 | Radiolabled Complex, in vitro serum stability (Table 1) ([4]; serum, 96 h): 89.6

IC50 [1]: 8.85 ± 1.43 µM
Compound: Apo-N-NE3TA: ligand-transferin conjugate (apo) of N-NE3TA-NCS

IC50 [1]: 7.03 ± 0.09 µM
Compound: Holo-C-NE3TA: ligand-transferin conjugate (holo) of C-NE3TA-NCS

IC50 [1]: 11.5 ± 0.21 µM
Compound: Holo-N-NE3TA: ligand-transferin conjugate (holo) of N-NE3TA-NCS
